Results reported in patent US11278509B2, “Lithium salts of N-substituted glycine compounds and uses thereof” (SyneuRx International (Taiwan) Corp., priority 2017, dated 2022).

Assays:
Type in all cases: in vivo, C57BL/6J male mice
[1] = test system: MK801-treated mice; assay: Barnes maze task, spatial learning and memory; conditions: MK-801 0.2 mg/kg i.p.
Description: (§1) All C57BL/6J male mice were purchased from Laboratory Animal Center of the College of Medicine of National Taiwan University. The mice were group housed (3-5 mice per cage) with food and water available ad libitum in polysulfone ventilated cages (Alternative Design, AR, USA) in the animal rooms of the Psychology Department of National Taiwan University. The colony was maintained on a 12/12-h light/dark cycle at the temperature of 22±2° C. and all behavioral studies were performed during dark cycle. All animals used in this study were adult mice (at least 2.5 months of age). All animal procedures were performed according to the protocols approved by Animal Care and Use Committee of National Taiwan University.
(§2) MK801, also known as dizocilpine, is an antagonist of NMDA receptor. Mice in Groups 2-6 were received an acute administration of MK-801 (a NMDA receptor antagonist, dissolved in normal saline, 0.1 or 0.2 mg/kg, i.p.) 20 min prior to behavioral tests. Mice in Groups 3-6 were received an oral gavage of N-methylglycine or lithium N-methylglycine, respectively (dissolved in PBS) 15 min prior to MK801 administration. The […] molarities of lithium N-methylglycine (300 mg/kg and 1000 mg/kg) were equal to those of N-methylglycine (278 mg/kg and 927 mg/kg), respectively.
(§3) Two cohorts ([…]) of mice were used in the present study, the cohort 1 (48 mice) were sequentially tested with open field (for MK801-induced hyper-locomotion) and pre-pulse inhibition (for sensor-motor gap function) tasks. The mice in cohort 2 (34 mice) were sequentially tested with Barnes maze (spatial learning and memory) task.
Mice were tested in a Barnes maze to examine spatial learning and memory as described previously (Barnes, 1979). This Barnes maze paradigm has been commonly examined in mouse models of CNS disorders, including, but not limited to, schizophrenia, depression, obsessive compulsive disorder, post-traumatic stress disorder, addiction disorders, Alzheimer's disease, frontotemporal dementia, Parkinson's disease, Duchenne muscular dystrophy, stroke, and Fragile X syndrome (see Cook et al., 2014; Gotz and Ittner, 2008; Hendriksen and Vles, 2008; Conklin et al., 2000; Song et al., 2006; Lai et al., 2014; Vasterling et al., 2002; Hyman, 2005; Schaar et al., 2010; Santos et al., 2014; Zhu et al., 2007; Deckersbach et al., 2000). The testing apparatus was an elevated (50 cm above the floor) circular Plexiglas plate (100 cm in diameter) with 20 holes (7 cm in diameter, 7 cm between holes) evenly spaced around the perimeter. Mice were trained on the plate to identify an escape box (25×8×6 cm) hidden behind the target hole, which was designated as an analog to the hidden platform in the Morris water maze task. The location of the target hole was selected for a given mouse but randomized across mice. Mice were initially placed in the center of the plate covered by an opaque cylinder, and the cylinder was removed 10 s after the beginning of the trial with both an aversive tone (440 Hz, 85 dB) and light (100 lux) switched on. […] The spatial memory was measured by the “probe test.” All the training trials and the probe tests were videotaped for 3 min, and then the escape latency for the training trials and the percentage of time in different quadrants (target, left, right, and opposite) during the probe test were analyzed. […]

[2] = test system: MK801-treated mice; assay: Open field task, MK801-induced hyper-locomotion; conditions: for effect on MK-801 induced hyper-locomotion activity (travel distance, open field): 60 minutes
Description: as §1, §2, §3
The open field task is a common measure of novel environment-induced exploratory behavior and general activity in both mice and rats. In the present study, the mice were placed in a Plexiglas cage (37.5 cm×21.5 cm×18 cm) under 50-65 lux light intensity, and their spontaneous locomotor activity was measured for 60 minutes using the EthoVision video tracking system (Noldus Information Technology, the Netherlands). The travel distance of each mouse was measured as an index of locomotion activity.

[3] = test system: MK801-treated mice; assay: Pre-pulse inhibition task, sensorimotor gating
Description: as §1
MK801, also known as dizocilpine, is an antagonist of NMDA receptor. Mice in Groups 2-6 were received an acute administration of MK-801 (a NMDA receptor antagonist, dissolved in normal saline, 0.1 or 0.2 mg/kg, i.p.) 20 min prior to behavioral tests. […]
Pre-pulse inhibition was used as an index of sensorimotor gating function using SR-LAB startle apparatus (San Diego Instruments, San Diego, Calif., USA). […] The percentage of pre-pulse inhibition was evaluated by the following formula: % PPI=100×[(PA score)−(pp-P score)]/(PA score), where the PA score was the average of the PA value in the middle blocks.

[4] = MK-801 0.1 or 0.2 mg/kg i.p. 20 min prior to test

C[C@]12N[C@H](Cc3ccccc31)c1ccccc12 [MK-801, dizocilpine, reference compound]
learning ability and memory in the Barnes maze task compared to the control group [1]: poor learning ability and memory deficit
locomotion in the open field test compared to the control group [2, 4]: induced the hyper-locomotion
sensorimotor gating function in the pre-pulse inhibition test compared to the control group [3, 4]: induced the sensorimotor gating function deficit

CNCC(=O)O [N-methylglycine, reference compound]
memory phase (probe test) after MK-801 induced memory deficit ([1]; dose not stated): not effective
effect on MK-801 induced hyper-locomotion activity (travel distance, open field) ([2]; 927 mg/kg oral gavage 15 min prior to MK801 i.p.): marginally effective

CNCC(=O)O.[Li] [lithium N-methylglycine]
learning phase (escape latency in training trials) after MK-801 induced learning deficit ([1]; 1000 mg/kg oral gavage): enhances the learning
recovery of memory deficit induced by MK-801, compared with N-methylglycine [1]: much superior as compared with N-methylglycine
memory phase (time in target zone, probe test) after MK-801 induced memory deficit ([1]; high dose (1000 mg/kg) oral gavage): completely ameliorated the memory deficit
dose dependence of effect on MK-801 induced hyper-locomotion ([2]; 300 mg/kg and 1000 mg/kg oral gavage + MK-801): Dose-dependent effect
effect on MK-801 induced hyper-locomotion activity (travel distance, open field) ([2]; 300 mg/kg oral gavage 15 min prior to MK801 i.p.): effective
effect on MK-801 induced hyper-locomotion activity (travel distance, open field) ([2]; 1000 mg/kg oral gavage 15 min prior to MK801 i.p.): effective
reducing hyperactivity induced by MK-801, compared with N-methylglycine ([2]; equal molarities: 300/1000 mg/kg vs 278/927 mg/kg): much more effective than N-methylglycine
effect on MK-801 induced deficit in pre-pulse inhibition (% PPI) ([3]; 300 mg/kg and 1000 mg/kg oral gavage + MK801, prepulse 78, 82, 90 dB, especially at 90 dB): alleviated
